The test system of one series is Rat Microsomes. Description: Metabolite screening of NPT-2042 in rat microsomes. It counts as in vitro ADME. The note with it: NPT-2042 10 uM, microsomes 1 mg/mL, 1 hour, NADPH regenerating system. How it is done:
(§1) Incubation of Test Compound in Microsomes • 1. Compound final concentration: 10 uM. • 2. Microsomes concentration 1 mg/mL. • 3. Incubate for 1 hour, with an NADPH regenerating system. • 4. 0.5 mL of incubation mixture at 0 min and 1 hour, mixed with 0.5 mL of acetonitrile. • 5. Vortex, and centrifuge at 13200 rpm for 10 min. • 6. Supernatant was transferred to a clean vial for LCMS analysis NADPH regenerating system (cofactor; consisting of NADP [0.340 mg/mL], G6P [1.56 mg/mL], and G6PDH [0.4 U/mL] solutions) LC-MS/MS Method: • HPLC Column: Agilent, Polaris 3 […], 150×2.0 mm (S/N: 533819), made in Netherlands. • Guard Column: Agilent, MonoChrom 3 C18 MetaGuard, 10×2.0 mm (S/N: 556145) • Column temperature: 40° C. • Mobile Phase A: 5 mM ammonium format in water (Optima) • Mobile Phase B: acetonitrile (Optima) • Flow rate: 0.2 mL/min • Gradient (Table on right) • MS: Thermo Q Exactive Plus.

For the next series, the system named is Microsomes. Description: Proposed metabolite structures and biotransformation pathways (rat, dog, human microsomes). To be noted: for Proposed Biotransformation Pathway: metabolite of NPT-2042 in microsomes. In kind it is in vitro ADME. How it is done: Incubation of Test Compound in Microsomes • 1. Compound final concentration: 10 uM. • 2. Microsomes concentration 1 mg/mL. • 3. Incubate for 1 hour, with an NADPH regenerating system. • 4. 0.5 mL of incubation mixture at 0 min and 1 hour, mixed with 0.5 mL of acetonitrile. • 5. Vortex, and centrifuge at 13200 rpm for 10 min. • 6. Supernatant was transferred to a clean vial for LCMS analysis NADPH regenerating system (cofactor; consisting of NADP [0.340 mg/mL], G6P [1.56 mg/mL], and G6PDH [0.4 U/mL] solutions)
LC-MS/MS Method: • HPLC Column: Agilent, Polaris 3 C18-A, 150×2.0 mm (S/N: 533819), made in Netherlands. • Guard Column: Agilent, MonoChrom 3 C18 MetaGuard, 10×2.0 mm (S/N: 556145) • Column temperature: 40° C. • Mobile Phase A: 5 mM ammonium format in water (Optima) • Mobile Phase B: acetonitrile (Optima) • Flow rate: 0.2 mL/min • Gradient (Table on right) • MS: Thermo Q Exactive Plus.
Summary of Proposed Metabolite Structures and Biotransformation Pathway

The test system of the next series is Dog Microsomes. Description: Metabolite screening of NPT-2042 in dog microsomes. In kind it is in vitro ADME. The note with it: NPT-2042 10 uM, microsomes 1 mg/mL, 1 hour, NADPH regenerating system. As to the method:
as §1

The next series deals with Human Microsomes. The series is described as follows: Metabolite screening of NPT-2042 in human microsomes. It counts as in vitro ADME. The note with it: NPT-2042 10 uM, microsomes 1 mg/mL, 1 hour, NADPH regenerating system. As to the method:
as §1

The nature of series [1]: Oral dose PK of NPT2042 in dog (AUC for absolute bioavailability). It counts as in vivo. To be noted: dog. As to the method:
Assays were performed to determine absolute bioavailability of NPT2042 in two species: dog and rat. The calculation of absolute bioavailability depends on four inputs: the areas under the curves (AUC) for oral and IV, and the oral and IV doses.
Testing was conducted to determine AUCs for an oral dose in dog.
Two dogs were each dosed 30 mg/kg NPT2042 orally, on two different days.

The conditions of series [2]: elderly, population-based control study; cited from earlier work.
The mark [3] stands for this setting: dose level 30 mg/kg NPT2042, Table 4.
Where [4] appears, read: dose level 30 mg/kg NPT2042, Table 5.

The structures appear in SMILES notation.

`Nc1cc(C(=O)N(Cc2ccccc2)Cc2ccccc2)cc(S(N)(=O)=O)c1Oc1ccccc1` [Example M4]: the “Rat Mic (MS Intensity)” value with Rat Microsomes worked out at 6.53E+07. Besides, the “Proposed Biotransformation Pathway” value in the series on Microsomes is given as “De-alkylation”. Further, the “Dog Mic (MS Intensity)” value in the series with Dog Microsomes amounted to 3.11E+07. The “Human Mic (MS Intensity)” value in the series on Human Microsomes stood at 2.52E+07.

For `O=C(O)Cc1ccccc1Nc1c(Cl)cccc1Cl` [diclofenac, reference compound], in the series with Microsomes (microsome incubation), the “Metabolism of positive control” value is “showed Phase I metabolism”.

As for `CCCCNc1cc(C(=O)O)cc(S(N)(=O)=O)c1Oc1ccccc1` [Bumetanide, bumetanide, reference compound], in series [1] (setting [3]), the “Bumetanide concentration, Time 0.50 h” value is listed as “BQL”; the “Bumetanide concentration, Time 1.00 h” value is on record as “BQL”; the “Bumetanide concentration, Time 2.00 h” value is “BQL”; the “Bumetanide concentration, Time 4.00 h” value is “BQL”. Moreover, in series [1] (setting [3]), the “Bumetanide concentration, Time 6.00 h” value is “BQL”; the “Bumetanide concentration, Time 8.00 h” value was “BQL”; the “Bumetanide concentration, Time 12.00 h” value is “BQL”; the “Bumetanide concentration, Time 24.00 h” value was “BQL”. In addition, in series [1] (setting [4]), the “Bumetanide concentration, Time 0.50 h” value is given as “BQL”; the “Bumetanide concentration, Time 1.00 h” value is listed as “BQL”; the “Bumetanide concentration, Time 2.00 h” value was “BQL”; the “Bumetanide concentration, Time 4.00 h” value is “BQL”. Further, in series [1] (setting [4]), the “Bumetanide concentration, Time 6.00 h” value is reported as “BQL”; the “Bumetanide concentration, Time 8.00 h” value is recorded as “BQL”; the “Bumetanide concentration, Time 12.00 h” value was “BQL”; the “Bumetanide concentration, Time 24.00 h” value is given as “BQL”.

On to `CCCCNc1cc(C(=O)NCc2ccccc2)cc(S(N)(=O)=O)c1Oc1ccccc1` [Example M6], for which the “Rat Mic (MS Intensity)” value in the series with Rat Microsomes was 7.96E+07. For the same compound, in the series with Microsomes, the “Proposed Biotransformation Pathway” value is reported as “De-alkylation”. Further, in the series on Dog Microsomes, the “Dog Mic (MS Intensity)” value is 4.12E+07. For the same compound, in the series on Human Microsomes, the “Human Mic (MS Intensity)” value was found to be 3.25E+07.

Regarding `Nc1cc(C(=O)NCc2ccccc2)cc(S(N)(=O)=O)c1Oc1ccccc1` [Example M1], the “Rat Mic (MS Intensity)” value in the series with Rat Microsomes turned out to be 1.28E+07. For the same compound, the “Proposed Biotransformation Pathway” value with Microsomes was “De-alkylations”. Moreover, the “Dog Mic (MS Intensity)” value with Dog Microsomes is given as 2.95E+06. For the same compound, in the series on Human Microsomes, the “Human Mic (MS Intensity)” value is reported as 1.42E+06.

Turning to `NS(=O)(=O)c1cc(C(=O)O)c(NCc2ccco2)cc1Cl` [furosemide], in series [2], the “Protective factor for the development of epilepsy” value was 39%.
